Among the data in patent publication US20240327356A1, “PYRIMIDINE BASED RAS MODULATORS AND USES THEREOF” (QUANTA THERAPEUTICS, INC., priority 2021, published 2024) are EC50 and IC50 values, retold here.

In test [1] the target is KRAS^G12D-FMe.RAF1^RBDCRD complex (Homo sapiens, UniProt P01116, G12D). Put plainly: SHG assay: binding to bilayer-tethered KRAS G12D/RAF1 complex. The conditions noted are these: GppNHp-loaded complex on PS bilayer; compound 0.027-40 μM, monitored over 60 min. A digest of the protocol:
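GppNHp-loaded KRAS G12D-FMe and RAF1 RBDCRD (equimolar) were tethered overnight at 4° C on a PS bilayer. Compounds at 0.027-40 μM in pH 7.4 Hepes buffer with 5 μM GppNHp were added. Second harmonic signal (800 nm excitation, 400 nm emission) was tracked every 5 min for 60 min.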

In test [2] the test system is pERK (ERK phospho-T202/Y204) in SW-480 cells. Put plainly: pERK inhibition in SW-480 cell line (HTRF). Format: cell-based. As to conditions: Homo sapiens, SW480, 1 hour incubation with compound. Here is the method: SW-480 cells were cultured in Leibovitz's L15 (Gibco Cat. No. 11415064), supplemented with 10% fetal bovine serum (Gibco, Cat. No. 1993708), and 1% penicillin and streptomycin. Cells were grown at 37° C., under atmospheric conditions without additional CO2. Cells were seeded into a 96-well tissue-culture treated plate (Greiner, Cat. No. 655180) at a density of 30,000 cell per well, and allowed to adhere for 16 hours before the media was removed, and cells were treated with compounds diluted into culture media at the indicated concentrations. After 1 hour of incubation in the presence of compound, cells were harvested to measure pERK levels using the lysis buffer supplied with the Homogenous Time Resolved Fluorescence pERK kit (HTRF, Cisbio Advance ERK phospho-T202/Y204, Cat. No. 64AERPEG). Lysates were transferred to a 384-well low-volume white plate (PerkinElmer, Cat. No. 6008280) and then treated with the detection reagents supplied by the HTRF kit, according to the “2-plate” protocol supplied by the manufacturer, and incubated for 4-hours at ambient temperature in darkness. Assay plates were read at two fluorescent wavelengths (665 nm and 620 nm) using an Envision plate reader (Perkin Elmer) and data was processed and fitted to a 4-parameter logistic model using Graphpad Prism 8.0 to calculate IC50 values.

The test system of test [3] is Phospho-ERK (Thr202/Tyr204) in MiaPaCa-2 cells. Put plainly: pERK inhibition in MiaPaca-2 cell line (HTRF). Format: cell-based. As to conditions: Homo sapiens, MIA PaCa-2, 1 hour incubation with compound. The method, boiled down: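 Following 16 h attachment, MiaPaCa-2 cells were given compounds for 1 h (final 0.5% DMSO), then lysed. Phospho-ERK (Thr202/Tyr204) detected by HTRF (665/620 nm) after 4 h detection at ambient temperature; IC50 from 4-parameter logistic fit.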

In test [1], `Cc1ccc(-c2ncc(NS(=O)(=O)c3ccccc3)c(N3CCC(CN)C3)n2)cc1Cl` (stereo not drawn) [Compound 112] registered an EC50 of 1 to 10 µM. Moreover, the IC50 in test [2] and in test [3] was 1 to 10 µM throughout.
Turning to `Cc1cc(-c2ncc(CNC(=O)C3(C#N)CC3)c(N3CCC(CN)C3)n2)ccc1Cl` (stereo not drawn) [Compound 52], in test [1], the EC50 is 10 to 50 µM. Moreover, the IC50 in test [2] and in test [3] was 1 to 10 µM each time.
Regarding `Cc1ccc(-c2ncc(CNC(=O)C3(C#N)CC3)c(N3CCC(N)CC3)n2)cc1Cl` [Compound 67], the 50% effective concentration (EC50) in test [1] lay in the range of 1 to 10 µM. For the same compound, the IC50 was in the range of 1 to 10 µM in test [2] and 0.1 to 1 µM in test [3].
Take `Cc1ccc(-c2ncc(CNC(=O)C3(C#N)CC3)c(N3CC[C@@H](CN)C3)n2)cc1Cl` [Compound 62]: in test [1], the EC50 lay in the range of 1 to 10 µM. Moreover, the IC50 in test [2] lay in the range of 1 to 10 µM; in test [3] it was 0.1 to 1 µM.
Turning to `Cc1ccc(-c2ncc(CNC(=O)C3(F)CC3)c(N3CCNCC3)n2)cc1Cl` [Compound 91], the EC50 in test [1] was 1 to 10 µM. Besides, the IC50 in test [2] and in test [3] was 1 to 10 µM throughout.
Consider `Cc1ccc(-c2ncc(CNC(=O)C3(C#N)CCC3)c(N3CCC(CN)C3)n2)cc1Cl` (stereo not drawn) [Compound 87], for which the EC50 in test [1] is 1 to 10 µM. The IC50 in test [2] and in test [3] was 1 to 10 µM each time.
The compound `N#CC1(C(=O)NCc2cnc(-c3ccc(Cl)c(C(F)F)c3)nc2N2CCC(CN)C2)CC1` (stereo not drawn) [Compound 57] displayed an EC50 in test [1] of 10 to 50 µM. For the same compound, the IC50 in test [2] and in test [3] was 1 to 10 µM throughout.
The compound `NCC1CCN(c2nc(-c3ccc(C(F)(F)F)c(Cl)c3)ncc2N2CCCC2=O)C1` (stereo not drawn) [Compound 90, 1-[4-[3-(aminomethyl)pyrrolidin-1-yl]-2-[3-chloro-4-(trifluoromethyl)phenyl]pyrimidin-5-yl]pyrrolidin-2-one] returned an EC50 in test [1] of 1 to 10 µM. For the same compound, the IC50 in test [2] and in test [3] was 1 to 10 µM each time.
